# Patent US20220008414A1, “PHARMACEUTICAL COMPOSITION COMPRISING HISTONE DEACETYLASE 6 INHIBITORS” (Chong Kun Dang Pharmaceutical Corp., priority 2018, published 2022)
# How the values were obtained:
# [1] = system: hippocampal neurons from a Sprague-Dawley (SD) rat fetus; experiment: Effect on axonal transport velocity of mitochondria (in vitro); type: cell-based; settings: amyloid-beta treated neurons, vehicle set at 100%, amyloid-beta group at 0%
# Experimental: To that end, on the 17th to 18th days (E17-18) of insemination, the hippocampal neurons from a Sprague-Dawley (SD) rat fetus were cultured for seven days in a culture container for imaging, which had been coated with extracellular matrix, and were treated with amyloid-beta protein fragments at a concentration of […]. In 24 hours later, such neurons were treated with the compound on the 8th day of in vitro culture. In three hours later, they were treated with MitoTracker Red CMXRos (Life Tech-nologies, NY, USA) for last five minutes to stain mitochondria. An image on the axonal transport of stained neuron mitochondria was taken with a confocal microscope (Leica SP8; Leica microsystems, UK) at an interval of one second for one minute to measure a transport velocity of each mitochondria per second with an IMARIS analysis program (BITPLANE, Zurich, Switzerland), and to set a section, in which the group treated with amyloid-beta had shown a significant decrease in the transport velocity of mitochondria compared to a vehicle. After that, the results of normalization with the vehicle set at 100% and with the group treated with amyloid-beta set at 0% were described in the following table 1.
# [2] = biological target: T1, HDAC-6 (Homo sapiens, UniProt Q9UBN7); experiment: HDAC6 enzyme activity inhibition (HDAC Fluorimetric Drug Discovery Kit); type: biochemical; design: purchased Calbiochem Inc. 382180; settings: HDAC6 over HDAC1
# T1 sequence (Q9UBN7 1-1215): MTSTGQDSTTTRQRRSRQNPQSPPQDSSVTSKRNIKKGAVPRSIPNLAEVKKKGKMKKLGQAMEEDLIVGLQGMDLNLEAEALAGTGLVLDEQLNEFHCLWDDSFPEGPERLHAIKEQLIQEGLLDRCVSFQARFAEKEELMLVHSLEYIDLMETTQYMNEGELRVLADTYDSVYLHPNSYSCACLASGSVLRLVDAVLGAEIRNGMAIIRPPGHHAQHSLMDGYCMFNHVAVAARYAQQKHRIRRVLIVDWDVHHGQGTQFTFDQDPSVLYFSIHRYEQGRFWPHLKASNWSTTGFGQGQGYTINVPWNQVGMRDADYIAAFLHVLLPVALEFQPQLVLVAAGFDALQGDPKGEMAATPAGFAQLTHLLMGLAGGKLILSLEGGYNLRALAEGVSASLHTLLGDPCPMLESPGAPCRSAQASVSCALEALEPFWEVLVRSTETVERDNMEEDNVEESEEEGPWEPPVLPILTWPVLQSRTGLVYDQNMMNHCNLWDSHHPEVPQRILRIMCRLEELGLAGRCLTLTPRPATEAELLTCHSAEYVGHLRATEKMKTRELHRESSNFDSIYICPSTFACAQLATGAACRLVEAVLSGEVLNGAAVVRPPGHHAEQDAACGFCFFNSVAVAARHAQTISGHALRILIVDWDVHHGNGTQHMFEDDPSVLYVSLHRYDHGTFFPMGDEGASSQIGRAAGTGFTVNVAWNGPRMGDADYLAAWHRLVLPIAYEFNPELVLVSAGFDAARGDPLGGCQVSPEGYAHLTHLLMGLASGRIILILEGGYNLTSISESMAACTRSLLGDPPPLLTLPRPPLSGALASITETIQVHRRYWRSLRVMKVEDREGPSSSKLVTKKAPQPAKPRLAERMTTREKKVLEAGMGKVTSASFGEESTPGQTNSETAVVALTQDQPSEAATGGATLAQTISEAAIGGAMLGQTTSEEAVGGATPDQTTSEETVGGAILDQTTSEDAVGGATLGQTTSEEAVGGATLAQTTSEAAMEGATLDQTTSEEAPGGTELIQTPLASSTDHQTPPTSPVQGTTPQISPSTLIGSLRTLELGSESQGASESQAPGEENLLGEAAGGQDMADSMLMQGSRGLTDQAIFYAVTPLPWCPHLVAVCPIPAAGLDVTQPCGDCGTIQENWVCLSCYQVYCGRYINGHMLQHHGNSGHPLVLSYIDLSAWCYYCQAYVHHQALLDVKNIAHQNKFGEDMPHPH
# Experimental: A comparative experiment was conducted with an existing developed material as a control group in order to identify the selectivity of the compound represented by Formula I of the present invention to HDAC6 through an experiment on HDAC1 and HDAC6 enzyme activity inhibition.
# The HDAC enzyme activity was measured with HDAC Fluorimetric Drug Discovery Kit (BML-[1424] AK511, 516) of Enzo Life Science, Inc. For the test on the HDAC1 enzyme activity, human recombinant HDAC1 (BML-SE456) was used as an enzyme source and Fluor de Lys®-“SIRT1 (BNL-KI177)” was used as a substrate. A 5-fold dilution of the compound was divided into a 96-well plate, after which 0.3 μg of the enzyme and 10 μM of the substrate were inserted into each well and subjected to reaction at 30° C. for 60 minutes, such that Fluor de Lys® Developer II (BMLKI176) was inserted thereinto and subjected to reaction for 30 minutes and finished. After that, a fluorescence value (Ex 360, Em 460) was measured with a multi-plate reader (Flexstation 3, Molecular Device). An experiment on HDAC6 enzyme was conducted in accordance with the same protocol as an HDAC1 enzyme activity test method by using human recombinant HDAC6 (382180) of Calbiochem Inc. Each IC50 value was calculated with GraphPad Prism 4.0 program, and final result values were described in the following table 2.
# [3] = biological target: T2, HDAC-8 (Homo sapiens, UniProt Q9BY41); experiment: HDAC isotype enzyme assay (Reaction biology Corp.); type: biochemical; settings: substrate RHK-K(Ac)-AMC
# T2 construct: Reaction biology Corp. (contract laboratory)
# T2 sequence (Q9BY41 1-377): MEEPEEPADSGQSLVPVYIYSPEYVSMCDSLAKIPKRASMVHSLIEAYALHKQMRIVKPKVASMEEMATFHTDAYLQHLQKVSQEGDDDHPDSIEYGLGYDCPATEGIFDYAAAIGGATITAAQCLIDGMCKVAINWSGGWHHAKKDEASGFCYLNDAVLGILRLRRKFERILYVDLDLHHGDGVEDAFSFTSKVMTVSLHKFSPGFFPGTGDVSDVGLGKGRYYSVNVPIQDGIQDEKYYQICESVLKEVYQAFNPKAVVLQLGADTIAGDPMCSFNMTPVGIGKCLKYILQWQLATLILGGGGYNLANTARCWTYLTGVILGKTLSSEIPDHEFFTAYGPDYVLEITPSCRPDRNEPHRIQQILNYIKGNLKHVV
# [4] = system: other HDAC isotypes; experiment: HDAC isotype enzyme assay (Reaction biology Corp.), remaining isotypes; type: biochemical; settings: isotypes other than HDAC6 and HDAC8 (ND in table 3)
# [5] = system: CMT1A mice (C22); experiment: Rotarod test; type: in vivo; settings: 10, 25 and 100 mg/kg twice a day orally for two weeks, 2.5-week-old C22 mice, vs control group (DW C22)
# Experimental: (§1) Particularly, the compound 84 was repeatedly administered into the 2.5-week-old CMT1A mice (C22) at 10, 25 and 100 mg/kg twice a day for two weeks. Behavioral evaluation and electrophysiological analysis were performed on the last day, immediately after which the animals were sacrificed to carry out histopathological analysis and evaluation.
# (§2) Rotarod, balance beam and grip strength tests were conducted once a day for two days. Thereafter, the animals were distributed by the Z-array method based on the results of rotarod, grip strength, and body weight. C22 mice were divided into four groups consisting of DW treated group and three compound 84 treated groups (10, 25, 100 mg/kg) with 10 mice per group. The test articles were repeatedly administered twice a day orally, and the behavioral test was performed 30 min after administration of the test articles.
# The Rotarod test (ROTA ROD, LE8205, Panlab) was performed to evaluate a motor coordination function/motor function. For three days before the test, all the test animals were placed on a road at 8 rpm and subjected to adaptive training five times a day. The animals, whose time of falling from the rod reached 150-180 seconds, were used in the test (including about 80% of all the animals). In both group separation and the present experiment, time at which animals fell from the rod was measured at a fixed speed of 8 rpm for three minutes. […]
# [6] = system: CMT1A mice (C22); experiment: Grip strength test; type: in vivo; settings: 10, 25 and 100 mg/kg twice a day orally for two weeks, 2.5-week-old C22 mice, vs control group (DW C22)
# Experimental: as §1, §2
# In an actual clinical test, a degree of muscle atrophy is evaluated with an ankle dorsiflexion examination and a grip test. GST (GRIP […] TEST, BIO-GS3, BIOSEB) is mainly used in an animal experiment. For the GST, strength of four feet was evaluated with grid. All the experiments were performed by one person. […] Out of the values consecutively measured five times, the maximum value was calibrated with a weight, and then used as evaluation results. […]
# [7] = system: CMT1A mice (C22); experiment: Nerve conduction study (NCS); type: in vivo; settings: 10, 25 and 100 mg/kg twice a day for two weeks, 2.5-week-old C22 mice, vs control group (DW C22)
# Experimental: as §1
# The evaluation of the nerve conduction study (NSC) was as follows. A supramaximal stimulus was applied to proximal peripheral nerves, after which the compound muscle action potentials (CMAP) produced from distal muscles controlled by the nerves were recorded to measure a latent period, amplitude, nerve conduction velocity (NCV), duration, shape, area and the like, which were then compared with normal values and thus evaluated. For the nerve conduction study (NSC), an electrical stimulus was given to the sciatic nerves of the mice anesthetized with isoflurane, after which the electrical stimulus given to sural nerves was measured with VikingQuest (Natus Medical Inc.).
# [8] = system: CMT1A mice (C22); experiment: Histopathological analysis of sciatic nerves; type: in vivo
# Experimental: as §1
# A histopathological analysis was performed as follows. In 0.5 hours after the last administration of the compound 84, the mice were euthanized through cervical dis-location, after which their sciatic nerves were collected therefrom. For a histopathological examination, the collected sciatic nerves were fixed into 2.5% glu-taraldehyde solution. The fixed tissues were prepared into a plastic-embedded block through a tissue treatment process, then micro-sectioned in the semithin thickness of 500 nm to prepare sciatic nerve tissue fragments, and then stained with toluidine blue.
# The stained nerve tissues were photographed at 400× magnification with an optical microscope. In a photographed entire area, the inner axon diameters of total myelinated fibers and total unmyelinated fibers were measured with an image J program. The results thereof were analyzed by using the numbers of total myelinated fibers and total unmyelinated fibers as well as a size distribution chart on the diameters of respective nerve fibers.
# [9] = biological target: T1, HDAC-6; experiment: HDAC isotype enzyme assay (Reaction biology Corp.); type: biochemical; design: Reaction biology Corp. (contract laboratory); settings: substrate RHK-K(Ac)-AMC
# Description: The experiment was requested at Reaction biology Corp. (Malvern, Pa., USA) and performed according to a test method established within the organization.
HDAC6 selectivity (fold) [2],IC50 [3],Inhibition of other HDAC isotypes [4],IC50 [9],Structure (SMILES),Velocity distribution (%) ([1]; 1 uM),Velocity distribution (%) ([1]; 3 uM),Velocity distribution (%) ([1]; 15 uM),Velocity distribution (%) ([1]; 0.5 uM),Time of latency to fall [5],Grip strength [6],Compound muscle action potentials (CMAP) [7],Motor nerve conduction velocity (MNCV) [7],"Size of diameters of myelinated nerves ([8]; sciatic nerve, vs control group (C22-Veh))","Ratio of myelinated nerves and unmyelinated nerves ([8]; sciatic nerve, vs control group of mice)","Morphological changes (loss of myelinated nerve fibers, axonal atrophy and schwann cell hyperplasia) ([8]; toluidine blue, 10, 25 or 100 mg/kg for two weeks, vs control group of mice)"
>237 fold,,,,"CC(C)CCN1CCN(Cc2cccc(CN3[C@H](C)CN(Cc4ccc(C(=O)NO)cc4)C[C@@H]3C)c2)CC1 [Compound 454, N-hydroxy-4-(((3R,5S)-4-(3-((4-isopentylpiperazin-1-yl)methyl)benzyl)-3,5-dimethylpiperazin-1-yl)methyl)benzamide]",* (0%~50%),* (0%~50%),** (50%~100%),,,,,,,,
>120 fold,,,,"C[C@@H]1CN(Cc2ccc(C(=O)NO)cc2)C[C@H](C)N1Cc1cccc(CN2CCCCC2)c1 [Compound 382, 4-(((3R,5S)-3,5-dimethyl-4-(3-(piperidin-1-ylmethyl)benzyl)piperazin-1-yl)methyl)-N-hydroxybenzamide]",,,,,,,,,,,
517 fold,5170 nM,not inhibited at all,72.2 nM,"C[C@@H]1CN(Cc2ccc(C(=O)NO)cc2)C[C@H](C)N1Cc1ccccc1 [Compound 84, 4-(((3R,5S)-4-benzyl-3,5-dimethylpiperazin-1-yl)methyl)-N-hydroxybenzamide]",,,*** (>100%),* (0%~50%),increased in a dose-dependent manner,increased in a dose-dependent manner,increased in a dose-dependent way,increased in a dose-dependent way,increase,significant increase,significant improvement
